Assay results taken from PubChem BioAssay (NCI).
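Step 1: Grow cells in 96-well plates. Step 2: Expose to compound for 48 hours at 5 concentrations. Step 3: Interpolate endpoints linearly; if unreached, use highest concentration. TGI marks complete inhibition of growth.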

Legend:
Test in all cases: NCI tumour cell line growth inhibition, 48 h
K-562 leukemia = system: K-562 leukemia
NCI-H226 lung = system: NCI-H226 lung
KM12 colon = system: KM12 colon
CAKI-1 renal = system: CAKI-1 renal
HOP-62 NSCLC = system: HOP-62 NSCLC
SK-OV-3 ovarian = system: SK-OV-3 ovarian
NCI-H460 lung = system: NCI-H460 lung
HL-60(TB) leukemia = system: HL-60(TB) leukemia
MOLT-4 leukemia = system: MOLT-4 leukemia
U251 CNS = system: U251 CNS
SF-295 CNS = system: SF-295 CNS
PC-3 prostate = system: PC-3 prostate
M14 melanoma = system: M14 melanoma
HS 578T breast = system: HS 578T breast

Measured: TGI

N#C/C(C(=O)Nc1ccc(Cl)cc1)=C(/N)N1CCCCC1
not listed: HS 578T breast
> 100 µM: all other assays above

CC(=O)NC1=C(NCCN(C)C)C(=O)c2ccccc2C1=O
22.5 µM: HL-60(TB) leukemia
29 µM: U251 CNS
not listed: CAKI-1 renal | PC-3 prostate | HS 578T breast
> 50 µM: all other assays above

Oc1ccc(N=C2CCC(=C(c3ccccc3)c3ccc(Nc4ccc(O)cc4)cc3)CC2)cc1
not listed: HOP-62 NSCLC | HL-60(TB) leukemia | HS 578T breast
> 100 µM: all other assays above

NC(=S)N/N=C1\NC(=O)/C(=C/c2ccc3c(c2)OCO3)S1
51.5 µM: HOP-62 NSCLC
55.3 µM: KM12 colon
71.8 µM: CAKI-1 renal
67.3 µM: MOLT-4 leukemia
63.3 µM: HL-60(TB) leukemia
57.7 µM: U251 CNS
> 100 µM: SK-OV-3 ovarian | NCI-H460 lung | SF-295 CNS
68.3 µM: M14 melanoma
78.7 µM: NCI-H226 lung

CC(C)=NNC=N/C(C#N)=C(\N)C#N
not listed: KM12 colon | HS 578T breast
> 100 µM: all other assays above

COC1=CCC=C(C[C@@H]2NCCc3cc(OC)c(OC)cc32)C1
not listed: PC-3 prostate | HS 578T breast
> 100 µM: all other assays above

CCc1c(Cc2[nH]c(Cc3[nH]c(C=O)c(C)c3CC)c(CC)c2CC)[nH]c(C=O)c1C
not listed: KM12 colon | PC-3 prostate | HS 578T breast
> 100 µM: all other assays above

CCN(CC)CCNC(=O)c1cc2cc(NC(=O)c3cc4cc(NC(=O)c5cc6cc(N)ccc6[nH]5)ccc4[nH]3)ccc2[nH]1
not listed: HL-60(TB) leukemia
> 100 µM: all other assays above

CC1=C/C(=N\O)C(C(O)(C(F)(F)F)C(F)(F)F)C(C)(C)C1 (centres undefined)
not listed: HL-60(TB) leukemia
> 10 µM: all other assays above

O=C(N=Nc1cccc(Cl)c1)NNc1cccc(Cl)c1
36 µM: PC-3 prostate
42.7 µM: MOLT-4 leukemia
39.6 µM: K-562 leukemia
40 µM: U251 CNS
> 100 µM: NCI-H226 lung
34.2 µM: NCI-H460 lung
91.1 µM: CAKI-1 renal
41.7 µM: HL-60(TB) leukemia
22.2 µM: HOP-62 NSCLC
32.2 µM: M14 melanoma

CCOC(=O)[C@@]12C3C=CC(CC3)[C@]1(C(=O)c1ccccc1)C(=O)C(=O)N2c1ccccc1 (some centres undefined)
not listed: NCI-H226 lung | HL-60(TB) leukemia | HS 578T breast
> 100 µM: all other assays above

CN(C)CCN=C1Nc2ccccc2C(=S)N2CSCC12 (centres undefined)
not listed: HL-60(TB) leukemia
> 100 µM: all other assays above

CCc1n[nH]c(=O)n1/N=C/c1ccc(C)cc1
44.3 µM: HS 578T breast
not listed: PC-3 prostate | M14 melanoma
> 100 µM: all other assays above

CC(C)(C)OC(=O)NCCc1cccc2c1oc1c(CCC(=O)O)cccc12
not listed: HOP-62 NSCLC | PC-3 prostate | HS 578T breast
> 100 µM: all other assays above
